Data from article PMC7465886, “4-(N-Alkyl- and -Acyl-amino)-1,2,4-triazole-3-thione Analogs as Metallo-β-Lactamase Inhibitors: Impact of 4-Linker on Potency and Spectrum of Inhibition” (Biomolecules, 2020).
Like-named read-outs stand apart in the source and are kept apart here.

Experiments:
VIM-1 = target: T1, VIM-1 (Pseudomonas aeruginosa, UniProt A0A0F7KYQ8); assay: MBL inhibition, reporter substrate method, VIM-1; type: biochemical; details: read-out: Inhibition of VIM-1 (dash)
T1 construct: made in house; host or cells: E. coli BL21(DE3) derivative, pET-9a
Experimental: (§1) Compounds were prepared in DMSO at a final concentration of 50 mM prior to dilution in the assay buffer. The reaction rate was measured as the variation of absorbance observed upon substrate hydrolysis in a UV-Vis spectrophotometer or microplate reader at a wavelength of 300 nm (imipenem, meropenem), 260 nm (cefotaxime), or 482 nm (nitrocefin) and in the presence of a purified MBL enzyme (such as VIM-1, VIM-2, VIM-4, NDM-1, and IMP-1, at a final concentration ranging from 1 to 70 nM).
(§2) These enzymes were overproduced in derivatives of E. coli BL21(DE3) carrying a pET-9 a (IMP-1, VIM-1, VIM-2, and VIM-4) or pET-15 b (NDM-1) vector into which the metallo-β-lactamase-encoding open reading frame was cloned. Bacterial strains were grown in the auto-inducing medium, ZYP-5052, supplemented with 50 μg/mL kanamycin for 24 h at 37 °C [38]. IMP-1, VIM-1, VIM-2, and VIM-4 were purified by ion-exchange and gel filtration chromatography using an AKTA Purifier platform (GE Healthcare, Uppsala, Sweden) as previously described. NDM-1 (residues 37-270) was produced as an amino-terminal 6 xHis-tag fusion protein and was purified using affinity chromatography. After growth for 26 h at 25 °C, bacterial cells were harvested by centrifugation (10,000× g, 30 min, 4 °C), resuspended in 10 mM HEPES buffer (pH 7.5) containing 0.15 M NaCl (buffer A) in one-fifth of the original culture volume, and lysed by sonication. Cellular debris was removed by centrifugation (12,000× g, 40 min, 4 °C). The clarified sample was loaded on a HisTrap HP column (bed volume, 5 mL; GE Healthcare), followed by a wash step (25 mL) with buffer A containing 20 mM imidazole. Proteins were eluted using buffer A containing 350 mM imidazole. The resulting protein sample was desalted (HiPrep 26/10 Desalting column, GE Healthcare) using 20 mM triethanolamine (pH 7.2) supplemented with 50 μM ZnSO4 and concentrated using an Amicon Ultra-15 (MW cut-off, 10 kDa; Millipore, Burlington, MA, USA). The concentrated sample was loaded on a Superdex 75 prep grade column (XK16/100 column; bed volume, 140 mL; GE Healthcare) and the proteins eluted with buffer A containing 50 μM ZnSO4. The active fractions were pooled and stored at −20 °C. The purity of the protein preparations was estimated >95% by SDS-PAGE analysis. The authenticity of the enzyme preparations was confirmed by electron spray ionization mass spectrometry, as previously described.
(§3) The inhibition constants (Ki) were determined on the basis of a model of competitive inhibition by analyzing the dependence of the ratio v0/vi (v0, hydrolysis velocity in the absence of inhibitor; vi, hydrolysis velocity in the presence of inhibitor) as a function of [I] as already described. The slope of the plot of v0/vi vs. [I], which corresponds to Km^S/(Km^S + [S])Ki (where Km^S is the Km value of the reporter substrate and [S] its concentration in the reaction mixture) and allowed the calculation of the Ki value. Alternatively, a Dixon plot analysis was carried out by measuring the initial hydrolysis rates in the presence of variable concentrations of inhibitor and substrate. This allowed Ki values to be determined and supported the hypothesis that the various compounds behaved as competitive inhibitors of the various tested enzymes. The assays were performed in triplicate.

VIM-4 = target: T2, VIM-4 (Pseudomonas aeruginosa, UniProt A0A0F7KYQ8, S205R); assay: MBL inhibition, reporter substrate method, VIM-4; type: biochemical; details: read-out: Percentage of Inhibition at 100 μM Inhibitor, VIM-4
T2 construct: made in house; host or cells: E. coli BL21(DE3) derivative, pET-9a
Experimental: as §1, §2, §3

IMP-1 [1] = target: T3, IMP-1 (Serratia marcescens, UniProt P52699); assay: MBL inhibition, reporter substrate method, IMP-1; type: biochemical
T3 construct: made in house; host or cells: E. coli BL21(DE3) derivative, pET-9a
T3 sequence (P52699 19-246 limits assumed): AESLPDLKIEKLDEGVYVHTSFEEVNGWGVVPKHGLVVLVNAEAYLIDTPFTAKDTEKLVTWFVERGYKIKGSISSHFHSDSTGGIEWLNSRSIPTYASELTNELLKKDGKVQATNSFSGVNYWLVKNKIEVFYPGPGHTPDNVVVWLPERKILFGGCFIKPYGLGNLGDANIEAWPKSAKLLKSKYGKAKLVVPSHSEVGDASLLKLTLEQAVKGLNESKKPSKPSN
Experimental: as §1, §2, §3

NDM-1 [2] = target: T4, NDM-1 (Klebsiella pneumoniae, UniProt C7C422); assay: MBL inhibition, reporter substrate method, NDM-1; type: biochemical
T4 sequence (C7C422 37-270 limits assumed): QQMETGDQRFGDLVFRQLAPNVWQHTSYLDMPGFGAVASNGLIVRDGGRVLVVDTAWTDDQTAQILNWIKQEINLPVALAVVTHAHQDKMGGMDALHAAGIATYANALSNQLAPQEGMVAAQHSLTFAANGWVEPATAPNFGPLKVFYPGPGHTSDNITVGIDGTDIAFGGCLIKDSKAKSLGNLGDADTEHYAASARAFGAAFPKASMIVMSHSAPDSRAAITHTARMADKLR
Experimental: as §1, §2, §3

VIM-2 [3] = target: T5, VIM-2 (Escherichia coli, UniProt Q5U7L7); assay: MBL inhibition, reporter substrate method, VIM-2; type: biochemical
T5 construct: made in house; host or cells: E. coli BL21(DE3) derivative, pET-9a
Experimental: as §1, §2, §3

VIM-2 [4] = target: T5, VIM-2; details: cited from earlier work; for Ki: Schiff base analogs, read-out: Ki Value VIM-2, hydrazone-like compound (converted)
IMP-1 [5] = target: T3, IMP-1; parameters: method as in PMID 32937203; details: cited from earlier work; for Inhibition of IMP-1 (dash in Ki column), corresponding hydrazone-like compound: in parentheses, 100 μM inhibitor; for Ki: value in parentheses, read-out: Ki Value IMP-1, corresponding hydrazone-like compound (converted)
NDM-1 [6] = target: T4, NDM-1; parameters: method as in PMID 32937203; details: cited from earlier work; for Ki: Schiff base analogs, read-out: Ki Value NDM-1, hydrazone-like compound (converted); for Inhibition of NDM-1 (dash in Ki column), corresponding hydrazone-like compound: in parentheses, 100 μM inhibitor
[7] = system: E. coli LZ2310(pLBII-VIM-2); assay: microbe, parasite or virus in culture; type: cell-based, Escherichia coli; details: 220 μg added to 30 μg cefoxitin disk (positive control)
Experimental: The potential activity of selected compounds was assessed by the agar disk-diffusion method, according to the CLSI (Clinical Laboratory Standard Institute) recommendations, using Mueller–Hinton medium. The inhibitor (dissolved in DMSO) was added (maximum volume of 15 μL) to a commercially available disk containing a defined amount of a β-lactam antibiotic (30 μg of cefoxitin (Oxoid, Milan, Italy)). After incubation (18 h at 35 °C), the diameter of the growth inhibition zone was measured and compared to that obtained in the absence of inhibitor. DMSO and EDTA (220 μg) were used as negative and positive controls, respectively. Experiments were performed in triplicate.
These tests were performed on an isogenic laboratory strain obtained after transforming Escherichia coli LZ2310 strain with a derivative of the high copy number plasmid pLB-II carrying the cloned blaVIM-2 gene harboring a cloned gene encoding the functional metallo-β-lactamase. Strain LZ2310 is a triple knockout mutant derived from K12 in which the genes encoding for components of the three major efflux pump systems were inactivated (genotype, ∆norE ∆mdfA N43 acrA1) and was used to generate an hyperpermeable background for MBL production and investigate the potential contribution of such mechanisms to inhibitor efflux.

[8] = read-out: Inhibition of IMP-1 (dash in Ki column)
[9] = read-out: Inhibition of VIM-2 (dash in Ki column)
[10] = read-out: Inhibition of NDM-1 (dash in Ki column)

Question: What does the source list for `O=C(O)c1ccccc1C(=O)Nn1c(-c2cccc(-c3ccccc3)c2)n[nH]c1=S` [Compound 19]?
Answer: inhibition at 100 µM (VIM-1): < 30%; inhibition at 100 µM (VIM-4): 41%; inhibition at 100 µM (IMP-1 [1]; read-out: Percentage of Inhibition at 100 μM Inhibitor, IMP-1): 40%; inhibition at 100 µM (NDM-1 [2]; read-out: Percentage of Inhibition at 100 μM Inhibitor, NDM-1): 42%; inhibition at 100 µM (VIM-2 [3]; read-out: Percentage of Inhibition at 100 μM Inhibitor, VIM-2): 36%

Question: What does the source list for `O=C(O)c1ccccc1C=Nn1c(CC(c2ccccc2)c2ccccc2)n[nH]c1=S` [hydrazone-like analog of 11]?
Answer: Ki (VIM-2 [4]): 25 µM; Inhibition of IMP-1 (dash in Ki column), corresponding hydrazone-like compound (IMP-1 [5]): - (-) (<40% of inhibition in the presence of 100 μM inhibitor); Ki (NDM-1 [6]): 2.7 µM

Question: For `O=C(O)c1ccccc1CNn1c(CC(c2ccccc2)c2ccccc2)n[nH]c1=S` [Compound 11], which inhibition at 100 µM (IMP-1 [1]; [8]) is on record?
Answer: Its inhibition at 100 µM is < 40%.

Question: And the “Inhibition of NDM-1 (in words)” value (NDM-1 [2])?
Answer: The value was “moderately inhibited”.

Question: And the Ki (NDM-1 [2]; hydrazine series, read-out: Ki Value NDM-1)?
Answer: Its Ki is 16.4 ± 2.6 µM.

Question: And the inhibition at 100 µM (VIM-2 [3]; [9])?
Answer: The inhibition at 100 µM was < 40%.

Question: Which Ki (VIM-2 [4]) does the source give for `Cc1ccccc1-c1n[nH]c(=S)n1N=Cc1ccccc1C(=O)O` [hydrazone-like analog of 2] here?
Answer: Its Ki is 3 µM.

Question: And the Ki (IMP-1 [5])?
Answer: The Ki was 58 µM.

Question: And the “Inhibition of NDM-1 (dash in Ki column), corresponding hydrazone-like compound” value (NDM-1 [6])?
Answer: The value was “- (-) (<40% of inhibition in the presence of 100 μM inhibitor)”.

Question: Which inhibition at 100 µM (IMP-1 [1]; [8]) does the source give for `O=C(O)c1ccccc1CNn1c(COc2ccc3ccccc3c2)n[nH]c1=S` [Compound 12] here?
Answer: The inhibition at 100 µM was < 40%.

Question: And the inhibition at 100 µM (NDM-1 [2]; [10])?
Answer: The inhibition at 100 µM was < 40%.

Question: And the inhibition at 100 µM (VIM-2 [3]; [9])?
Answer: Its inhibition at 100 µM is < 40%.

Question: With `O=C(O)c1ccccc1CNn1c(-c2cc3ccccc3[nH]2)n[nH]c1=S` [Compound 5] as the compound, how does the inhibition at 100 µM (IMP-1 [1]; [8]) read?
Answer: Its inhibition at 100 µM is < 40%.

Question: And the inhibition at 100 µM (NDM-1 [2]; [10])?
Answer: Its inhibition at 100 µM is < 40%.

Question: And the inhibition at 100 µM (VIM-2 [3]; [9])?
Answer: Its inhibition at 100 µM is < 40%.

Question: What does the source list for `O=[N+]([O-])c1ccccc1C=Nn1c(CCc2ccccc2)n[nH]c1=S` [hydrazone-like analog of 9]?
Answer: Inhibition of VIM-2 (dash in Ki column), corresponding hydrazone-like compound (VIM-2 [4]; in parentheses, 100 μM inhibitor): - (-) (<40% of inhibition in the presence of 100 μM inhibitor); Inhibition of IMP-1 (dash in Ki column), corresponding hydrazone-like compound (IMP-1 [5]): - (-) (<40% of inhibition in the presence of 100 μM inhibitor); Inhibition of NDM-1 (dash in Ki column), corresponding hydrazone-like compound (NDM-1 [6]): - (-) (<40% of inhibition in the presence of 100 μM inhibitor)

Question: What does the source list for `O=C(O)c1ccccc1C=Nn1c(-c2ccc3ccccc3c2)n[nH]c1=S` [hydrazone-like analog of 4]?
Answer: Ki (VIM-2 [4]): 0.7 µM; Ki (IMP-1 [5]): 6.9 µM; Ki (NDM-1 [6]): 2.3 µM

Question: For `O=C(O)c1ccccc1C=Nn1c(Cc2ccccc2)n[nH]c1=S` [hydrazone-like analog of 6], which Ki (IMP-1 [1]; value in parentheses, analogs of compounds 5 and 6 (this work), read-out: Ki Value IMP-1, corresponding hydrazone-like compound) is on record?
Answer: Its Ki is 28 µM.

Question: And the Ki (NDM-1 [2]; value in parentheses, analogs of compounds 5 and 6 (this work), read-out: Ki Value NDM-1, corresponding hydrazone-like compound)?
Answer: The Ki was 42 µM.

Question: What about the Ki (VIM-2 [3]; value in parentheses, analogs of compounds 5 and 6 (this work), read-out: Ki Value VIM-2, corresponding hydrazone-like compound (converted)) of the same compound?
Answer: The Ki was 3.2 µM.

Question: With `O=C(O)c1ccccc1C(=O)Nn1c(-c2ccccc2)n[nH]c1=S` [Compound 17] as the compound, how does the inhibition at 100 µM (IMP-1 [1]; read-out: Percentage of Inhibition at 100 μM Inhibitor, IMP-1 (dash)) read?
Answer: Its inhibition at 100 µM is < 20%.

Question: What about the inhibition at 100 µM (NDM-1 [2]; read-out: Percentage of Inhibition at 100 μM Inhibitor, NDM-1 (dash)) of the same compound?
Answer: Its inhibition at 100 µM is < 20%.

Question: What about the Ki (VIM-2 [3]; hydrazine and hydrazide series, read-out: Ki Value VIM-2) of the same compound?
Answer: The Ki was > 100 µM.

Question: And the inhibition at 100 µM (VIM-2 [3]; read-out: Percentage of Inhibition at 100 μM Inhibitor, VIM-2 (dash))?
Answer: The inhibition at 100 µM was < 20%.

Question: For `O=C(O)CN(CCN(CC(=O)O)CC(=O)O)CC(=O)O` [EDTA, reference compound], which “Inhibition Zone Diameter” value [7] is on record?
Answer: The value was 28 mm.
